Assay type in all cases: in vivo, rat
The subject of assay [1] is old rats. Kind of assay: Food intake of old rats fed supplemented diets for 14 weeks. The following applies: for decrease in food intake per week: male Wistar rats, supplemented diet from age 21 months for 14 weeks, linear regression. The source says:
(§1) A cohort of male Wistar rats born and breed in a non-specific-pathogen-free animal facility (Unité de Nutrition Comparée, INRA Theix) was used for the study. When rats were 18 month old they were weighted monthly to evaluate their body weight change and blood was sampled in order to quantify inflammatory markers (acute phase proteins: α2-macroglobulin and fibrinogen). At the age of 21 months, rats were divided in two groups matched for body weight, body weight loss, and inflammatory status. Rats were fed with supplemented diets, starting at the age of 21 months and for 14 weeks. The cysteine diet consisted in the commercial pelleted diet A04 (SAFE/UAR, Scientific Animal Food and Engineering, Villemoisson-sur-Orge, France) supplemented with 4.0 g of L-cysteine (Sigma) per kg, and the control diet was supplemented with 2.9 g of L-alanine (Jerafrance) per kg (iso-nitrogenous diets). Experimental diets have been prepared at the Unite Préparation Aliments Expérimentaux, INRA Jouy-en-Josas.
Food intake (FIG. 4) decreased with time and was lower for the alanine diet.

Assay [2] is described as follows: Body weight of old rats fed supplemented diets. Particulars: for Final BW: body weight at end of supplementation; for Initial BW: body weight at start of supplementation (baseline), age 21 months; for BW change: rat, in vivo.
Source text: as §1
The decrease accelerated at the end of the experiment since body weights of the two last weeks were different from each of the previous ones.

A short description of assay [3]: Skeletal muscle and organ weights of old rats fed supplemented diets. Particulars: for Colon weight / EDL weight / Gastrocnemius weight / Kidneys weight / Liver weight / Small intestine weight / Soleus weight / Tibialis weight: end of supplementation.
Source text: as §1

The subject of assay [4] is old rats. Kind of assay: Survival of old rats fed supplemented diets (Kaplan-Meier, log-rank test). Particulars: male Wistar rats, supplemented diet from age 21 months for 14 weeks; log-rank test=0.054, P=0.816.
Source text: as §1
Survival curves were generated by Kaplan-Meier method (FIG. 2) and compared by the log-rank test in order to analyze the effect of cysteine supplementation on mortality.

In the case of `C[C@H](N)C(=O)O` [Alanine, L-alanine, reference compound], the “decrease in food intake per week” value in assay [1] came out at 0.96 % per week. In assay [2], the “Final BW” value is reported as 595 ± 13 g, the “Initial BW” value turned out to be 657 ± 10 g and the BW change is listed as −7.03 ± 1.60 %/13 wk. Besides, in assay [3], the Colon weight stood at 2.68 ± 0.06 g, the EDL weight is recorded as 222 ± 4 mg, the Gastrocnemius weight is recorded as 2.51 ± 0.04 g and the Kidneys weight is on record as 4.32 ± 0.19 g. Moreover, in assay [3], the Liver weight was determined as 18.4 ± 0.5 g, the Small intestine weight is listed as 11.4 ± 0.3 g, the Soleus weight is recorded as 177 ± 3 mg and the Tibialis weight turned out to be 888 ± 16 mg.

As for `N[C@@H](CS)C(=O)O` [Cysteine, L-cysteine], in assay [4], the mortality rate entry is reported as “did not change”. The “effect on decrease in food intake associated with aging” value in assay [1] (4 g cysteine per kg supplemented diet, rats about 22.5 months old) was “blunts the decrease in food intake”. Further, the “decrease in food intake per week” value in assay [1] is reported as “unchanged”. Besides, in assay [2], the “Final BW” value is 613 ± 12 g, the “Initial BW” value is given as 661 ± 10 g and the BW change is listed as −6.27 ± 1.18 %/13 wk. Besides, in assay [3] (cysteine supplemented rats vs alanine control), the “liver weight compared with control rats” value is “higher liver weight than control rats”. Besides, in assay [3], the Colon weight was 2.76 ± 0.07 g, the EDL weight is 228 ± 4 mg, the Gastrocnemius weight worked out at 2.51 ± 0.04 g and the Kidneys weight was 4.31 ± 0.17 g. Also, in assay [3], the Liver weight was 20.0 ± 0.4 g, the Small intestine weight is recorded as 12.0 ± 0.2 g, the Soleus weight amounted to 178 ± 4 mg and the Tibialis weight is recorded as 889 ± 18 mg.

These data come from US9233090B2, “Cysteine and food intake” (Nestec S.A., priority 2010, dated 2016).
